Here are results for twelve compounds from patent US20240270715A1, “INHIBITORS OF TRANSGLUTAMINASES” (ZEDIRA GMBH, priority 2021, published 2024).

The target of data set [1] is T1, recombinant human transglutaminase 2 (Homo sapiens, UniProt P21980).
T1 sequence (P21980 1-687): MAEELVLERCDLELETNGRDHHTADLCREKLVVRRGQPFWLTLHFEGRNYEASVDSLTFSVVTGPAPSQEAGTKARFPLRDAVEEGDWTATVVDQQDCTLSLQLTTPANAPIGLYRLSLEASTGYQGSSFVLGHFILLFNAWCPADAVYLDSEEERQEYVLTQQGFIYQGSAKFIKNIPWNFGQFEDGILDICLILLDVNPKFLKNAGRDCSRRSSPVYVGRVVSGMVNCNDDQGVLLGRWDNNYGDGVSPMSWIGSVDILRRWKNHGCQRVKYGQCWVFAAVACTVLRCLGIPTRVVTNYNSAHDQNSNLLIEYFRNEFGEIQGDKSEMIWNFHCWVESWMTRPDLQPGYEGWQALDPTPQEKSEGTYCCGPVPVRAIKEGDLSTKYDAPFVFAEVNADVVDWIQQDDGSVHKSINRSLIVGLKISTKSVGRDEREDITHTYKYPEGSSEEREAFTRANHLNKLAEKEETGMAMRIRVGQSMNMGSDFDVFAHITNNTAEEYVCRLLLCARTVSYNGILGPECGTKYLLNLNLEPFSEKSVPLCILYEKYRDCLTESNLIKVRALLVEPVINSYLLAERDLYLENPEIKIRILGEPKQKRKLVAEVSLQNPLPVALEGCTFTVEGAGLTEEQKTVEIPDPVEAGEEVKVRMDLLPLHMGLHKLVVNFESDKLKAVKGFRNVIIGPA
The experiment in a line: Transglutaminase assay: incorporation of dansylcadaverine into dimethylcasein (DCC-assay). It counts as biochemical. Particulars: for IC50: recombinant human TG2 10 nM, dansylcadaverine/dimethylcasein, read-out: IC50 TG2. How it is done:
To illustrate the advantage of branched alkyl moieties over aromatic moieties, we refer to reference compounds Ref. 2 (ZED1227, U.S. Pat. No. 9,434,763 B2) and Ref. 3 (A8, ZED1047). Inhibition data were determined using the classical fluorescent transamidation assay (dansylcadaverine incorporation into methylated casein, DCC-assay) as described [Büchold, C.; Hils, M.; Gerlach, U.; Weber, J.; Pelzer, C.; Heil, A.; Aeschlimann, D.; Pasternack, R. Features of ZED1227: The First-In-Class Tissue Transglutaminase Inhibitor Undergoing Clinical Evaluation for the Treatment of Celiac Disease. Cells 2022, 11, 1667. https://doi.org/10.3390/cells11101667]. Casein is one of the best known high molecular weight (24 kDa) protein substrates for transglutaminases. Please note, the IC50 value of Ref. 3 (A8) published in U.S. Pat. No. 9,434,763 B2 cannot be compared to the present data, relying on a fluorogenic isopeptidase assay.
To this extent, inhibition data were determined using the classical fluorescent transamidation assay (dansylcadaverine incorporation into methylated casein, DCC-assay) as described in Büchold et al. [Büchold, C.; Hils, M.; Gerlach, U.; Weber, J.; Pelzer, C.; Heil, A.; Aeschlimann, D.; Pasternack, R. Features of ZED1227: The First-In-Class Tissue Transglutaminase Inhibitor Undergoing Clinical Evaluation for the Treatment of Celiac Disease. Cells 2022, 11, 1667. https://doi.org/10.3390/cells11101667]. Casein is one of the best known high molecular weight (24 kDa) protein substrates for transglutaminases. Inhibition data of the inventive compounds was compared with inhibition of compounds disclosed in U.S. Pat. No. 9,434,763 B2, particularly, compound A8, which is denoted herein as Reference 3. It is noteworthy that the IC50 values of compounds A8 published in U.S. Pat. No. 9,434,763 B2 and E16 from U.S. Pat. No. 11,072,634 B2 cannot be compared to the present data, relying on a fluorogenic isopeptidase assay.
For the determination of potency of inhibitors against tissue transglutaminase, the incorporation of dansylcadaverine into dimethylcasein (Zedira product T036, Lorand et al., Anal Biochem, 1971, 44:221-31) was measured using recombinant human transglutaminase 2 (Zedira Product T022).
The tissue transglutaminase is diluted in buffer (50 mM Tris-HCl, 7.5 mM CaCl2, 150 mM NaCl, pH=7.4). The final concentration of TG2 in the assay is 10 nM.
A 10 mM inhibitor stock solution is prepared in DMSO, and from this a serial 1:2-fold dilution series is prepared also in DMSO. Each of the initial dilutions is subsequently diluted 1:50-fold with buffer (50 mM Tris-HCl, 7.5 mM CaCl2, 150 mM NaCl, pH=7.4) to yield the final working dilutions containing 2% (v/v) DMSO. 15 μl of inhibitor working dilution are added per well of a 96 well microtiter plate. As control, 15 μl of a 2% (v/v) DMSO solution prepared using the buffer mentioned above are added per well.
Immediately before starting the assay, 600 μl transglutaminase working solution are added to 11.4 ml assay buffer (50 mM Tris-HCl, 10 mM CaCl2, 10 mM glutathione, 2.5% glycerol, 16.7 μM dansylcadaverine, 4 μM N,N-dimethylcasein, 200 mM NaCl, pH=8.0). 285 μl of this reaction mix are added per well containing the inhibitor.
Increase in fluorescence is measured using λex=330 nm and λemG=500 nm at […] for 30 min. A slope of the increase in fluorescence between 20 and 30 min is calculated for determination of the IC50 value (inhibitor concentration at which 50% of the initial activity is blocked).
Analysis of enzymatic activity is performed by calculation of the slope of an increase in fluorescence intensity. IC50 values are calculated by plotting the enzymatic activity (as percentage from control containing 2% DMSO instead of inhibitor) against the inhibitor concentration. IC50 is defined as the inhibitor concentration blocking 50% of initial enzyme activity.

The nature of data set [2]: Log D by shake flask method (octanol / PBS pH 7.4, HPLC). The class given is physicochemical. The following applies: octanol / PBS pH 7.4, shake flask; read-out: logD. As for the experimental part:
In order to classify the inventive compounds according to their lipophilicity, Log D values (distribution coefficient) were determined by means of the well-established shake flask method, measuring the partition of a compound between an octanol and phosphate-buffered saline (PBS, pH 7.4) by HPLC.
Compounds with a moderate lipophilicity (Log D values from 0 to 3) are usually advantaged for oral absorption, being in balance between solubility and permeability. However, sophisticated formulation of a compound might improve oral bioavailability for highly lipophilic compounds.

Data set [3] in a line: Caco-2 permeability assay (CacoReady kit). The class given is in vitro ADME. The following applies: human. How it is done: Permeability coefficients (Papp values) were obtained from Caco-2 barrier studies predicting oral/intestinal bioavailability of the tested compounds. The assays were performed by using CacoReady™ ready-to-use kits from ReadyCell according to the manufacturers protocol.
A general note: Passage across Caco-2 layers is used to estimate intestinal permeability.

Molecules are shown by their SMILES.

Broadly, the IC50 is the concentration that inhibits the measured activity by half. By logD is commonly meant lipophilicity at a set pH, counting ionised and neutral species. A word on the Papp: it is a coefficient for how fast a substance crosses the barrier. The low end stands for poor permeation, the high end for ready permeation. `CCNC(=O)C(=O)CC[C@H](NC(=O)[C@H]1COCCN1)C(=O)Nc1cccn(CC(=O)NC2C3CC4CC2CC(C)(C4)C3)c1=O` (stereo partly drawn) [Compound I-62, (S)-N1-ethyl-N6-(1-(2-(5-methyladamantane-2-amino)-2-oxoethyl)-2-oxo-1,2-dihydropyridin-3-yl)-5-((R)-morpholine-3-carboxamido)-2-oxohexanediamide]: the IC50 in data set [1] lay within 150 to 600 nM. For the same compound, the logD in data set [2] fell in the range of 1 to 3. This compound came in with a Papp in data set [3] of under 1 ×10⁻⁶ cm/s.
On to `CCNC(=O)C(=O)CC[C@H](NC(=O)[C@@H]1CCCNC1)C(=O)Nc1cccn(CC(=O)NC2C3CC4CC2CC(Br)(C4)C3)c1=O` (stereo partly drawn) [Compound I-61, (S)-N1-ethyl-N6-(1-(2-(5-bromoadamantane-2-amino)-2-oxoethyl)-2-oxo-1,2-dihydropyridin-3-yl)-2-oxo-5-((R)-piperidine-3-carboxamido)hexanediamide], for which the IC50 in data set [1] lay within 150 to 600 nM. Further, the logD in data set [2] lay within 1 to 3. Besides, in data set [3], the Papp is under 1 ×10⁻⁶ cm/s.
Take `CCNC(=O)C(=O)CC[C@H](NC(=O)c1cc(Br)sc1Br)C(=O)Nc1cccn(CC(=O)NC2C3CC4CC(C3)CC2C4)c1=O` (stereo partly drawn) [Compound I-47, (S)-2-(2,5-dibromothiophene-3-carboxamido)-N6-ethyl-N1-(1-(2-(2-adamantylamino)-2-oxoethyl)-2-oxo-1,2-dihydropyridin-3-yl)-5-oxohexanediamide]: the IC50 in data set [1] was under 150 nM. The logD in data set [2] was in the range of 3 to 5. In data set [3], this compound displayed a Papp of 1 to 10 ×10⁻⁶ cm/s.
The like results for `CCNC(=O)C(=O)CC[C@H](NC(=O)c1nccc2cnccc12)C(=O)Nc1cccn(CC(=O)NC23CCC(C2)C3)c1=O` [Compound I-107, (S)-N1-(1-(2-(bicyclo[2.1.1]hexan-1-ylamino)-2-oxoethyl)-2-oxo-1,2-dihydropyridin-3-yl)-N6-ethyl-2-(2,6-naphthyridine-1-carboxamido)-5-oxohexanediamide] were, in that order, 600 to 3500 nM, under 1 and under 1 ×10⁻⁶ cm/s.
For the compound `CCNC(=O)C(=O)CC[C@H](NC(=O)c1csc2ccccc12)C(=O)Nc1cccn(CC(=O)NC23CCCC4CC(CCC42)C3)c1=O` (stereo partly drawn) [Compound I-78, (S)-2-(benzo[b]thiophene-3-carboxamido)-N6-ethyl-N1-(1-(2-(4-homoisotwistane-3-amino)-2-oxoethyl)-2-oxo-1,2-dihydropyridin-3-yl)-5-oxohexanediamide], in data set [1], the IC50 is 150 to 600 nM. The logD in data set [2] lay within 3 to 5. In data set [3], this compound gave a Papp of 1 to 10 ×10⁻⁶ cm/s.
Consider `CCNC(=O)C(=O)CC[C@H](NC(=O)c1sc(Br)cc1Br)C(=O)Nc1cccn(CC(=O)NC2C3CC4CC(C3)CC2C4)c1=O` (stereo partly drawn) [Compound I-44, (S)-2-(3,5-dibromothiophene-2-carboxamido)-N6-ethyl-N1-(1-(2-(2-adamantylamino)-2-oxoethyl)-2-oxo-1,2-dihydropyridin-3-yl)-5-oxohexanediamide], for which the IC50 in data set [1] was under 150 nM. Moreover, the logD in data set [2] lay in the range of 3 to 5. Moreover, the Papp in data set [3] was 1 to 10 ×10⁻⁶ cm/s.
Regarding `CCNC(=O)C(=O)CC[C@H](NC(=O)c1cc2c(F)c(F)ccc2[nH]1)C(=O)Nc1cccn(CC(=O)NC2C3CC4CC(C3)CC2C4)c1=O` (stereo partly drawn) [Compound I-36, (S)-2-(4,5-difluoro-1H-indole-2-carboxamido)-N6-ethyl-N1-(1-(2-(2-adamantylamino)-2-oxoethyl)-2-oxo-1,2-dihydropyridin-3-yl)-5-oxohexanediamide], in data set [1], the IC50 was under 150 nM. Moreover, in data set [2], the logD lay within 3 to 5. The Papp in data set [3] is 1 to 10 ×10⁻⁶ cm/s.
In the case of `CCNC(=O)C(=O)CC[C@H](NC(=O)c1nn[nH]n1)C(=O)Nc1cccn(CC(=O)NC2C3CC4CC(C3)CC2C4)c1=O` (stereo partly drawn) [Compound I-57, (S)-N1-ethyl-N6-(1-(2-(2-adamantylamino)-2-oxoethyl)-2-oxo-1,2-dihydropyridin-3-yl)-2-oxo-5-(2H-tetrazole-5-carboxamido)hexanediamide], the IC50 in data set [1] was in the range of 600 to 3500 nM. The logD in data set [2] is under 1. In addition, the Papp in data set [3] is under 1 ×10⁻⁶ cm/s.
In the case of `CCC(CC)CNC(=O)Cn1cccc(NC(=O)[C@H](CCC(=O)C(=O)NC)NC(=O)c2cncn2C)c1=O` [Ref. 1, reference compound], the “fold more potent compared to Ref. 4” value in data set [1] (ratio of IC50, compare table 1) is recorded as “about 15 fold”. Also, the IC50 in data set [1] lay in the range of 600 to 3500 nM. In data set [2], the logD is under 1. This compound showed a Papp in data set [3] of under 1 ×10⁻⁶ cm/s.
Take `CCNC(=O)C(=O)CC[C@H](NC(=O)c1nc2ccccc2[nH]1)C(=O)Nc1cccn(CC(=O)NC2C3CC4CC(C3)CC2C4)c1=O` (stereo partly drawn) [Compound I-38, (S)-2-(1H-benzo[d]imidazole-2-carboxamido)-N6-ethyl-N1-(1-(2-(2-adamantylamino)-2-oxoethyl)-2-oxo-1,2-dihydropyridin-3-yl)-5-oxohexanediamide]: the IC50 in data set [1] is under 150 nM. Further, the logD in data set [2] was in the range of 3 to 5. Further, the Papp in data set [3] was under 1 ×10⁻⁶ cm/s.
As to `CCNC(=O)C(=O)CC[C@H](NC(=O)C1CN2CCC1CC2)C(=O)Nc1cccn(CC(=O)NC2(C#N)C3CC4CC(C3)CC2C4)c1=O` (stereo partly drawn) [Compound I-63, (S)-N1-ethyl-N6-(1-(2-(2-carbonitrileadamantane-2-amino)-2-oxoethyl)-2-oxo-1,2-dihydropyridin-3-yl)-2-oxo-5-((3S,4R)-quinuclidine-3-carboxamido)hexanediamide], the IC50 in data set [1] was 150 to 600 nM. Further, in data set [2], the logD was under 1. The compound further showed a Papp in data set [3] of under 1 ×10⁻⁶ cm/s.
In the case of `CCNC(=O)C(=O)CC[C@H](NC(=O)c1nccn1C)C(=O)Nc1cccn(CC(=O)NC23CC4CC(C)(CC(C)(C4)C2)C3)c1=O` [Compound I-23, (S)-N1-ethyl-N6-(1-(2-(3,5-dimethyladamantane-1-amino)-2-oxoethyl)-2-oxo-1,2-dihydropyridin-3-yl)-5-(1-methyl-1H-imidazole-2-carboxamido)-2-oxohexanediamide], the IC50 in data set [1] is 600 to 3500 nM. Besides, in data set [2], the logD was 1 to 3. This compound also returned a Papp in data set [3] of under 1 ×10⁻⁶ cm/s.
